Entries after “also recorded” stand apart in the source; their conditions may differ.
What was measured:
[1] = tested on: Mouse CT26 tumor explants; assay: 5-FC cell killing assay (MTS) on CT26 tumor explants; type: cell-based; conditions: explant animal 31: CT26, AC3-yCD2(V) E5 + 5-FC, 3.5 5-FC dosings
[2] = tested on: recurrent anaplastic oligodendroglioma; assay: Patient dog with spontaneous recurrent anaplastic oligodendroglioma, vector by CED plus 5-FC; conditions: second cycle 160 mg/kg/day by mouth, stopped after fifth day
U-87 cells = assay: yCD protein level in infected U-87 cells (FIG. 4); type: cell-based, human

Q: `Nc1nc(=O)[nH]cc1F` [Vector 5-FC, 5-fluorocytosine] was tested. Which “5-FC sensitivity IC50 (mM)” value [1] did it give?
A: The value was “poorly responsive; also recorded: Not sensitive”.

Q: And the adverse event [2]?
A: Its adverse event is “development of rash”.

B1: yCD2 protein: yeast cytosine deaminase with A23L/V108I/I140L substitutions, human codon optimized gene (SEQ ID NO:4) (protein, UniProt Q12178 1-158, looked up, variant A23L V108I I140L)
Cytosine deaminase: MVTGGMASKWDQKGMDIAYEEALLGYKEGGVPIGGCLINNKDGSVLGRGHNMRFQKGSATLHGEISTLENCGRLEGKVYKDTTLYTTLSPCDMCTGAIIMYGIPRCVIGENVNFKSKGEKYLQTRGHEVVVVDDERCKKLMKQFIDERPQDWFEDIGE
Q: How did the “CD protein level compared to wild type yCD protein” value (U-87 cells) turn out when B1 was run?
A: Its value is “higher levels”.

— patent publication US10407666B2, “Recombinant vectors” (priority 2008, dated 2019)
